Laboratory results published in publication PMC3119665, “A New Drug Design Targeting the Adenosinergic System for Huntington's Disease” (PLoS ONE, 2011).

Experiments:
R6/2 mice = conditions: cited from earlier work
[1] = biological target: Adenosine transporter (ENT1); conditions: ENT1 inhibitor reference value; no reference given; cited from earlier work
A2AR = biological target: T1, A2AR (Rattus norvegicus, UniProt P30543); assay: cAMP assay in PC12 cells; format: cell-based; conditions: PC12 cells, T1-11 10 µM, SCH 1 µM, 20 min
T1 construct: Treatment of PC12 cells with T1-11 dose-dependently elevated the cellular cAMP levels; endogenous in cells; host or cells: PC12
T1 sequence (P30543 whole entry): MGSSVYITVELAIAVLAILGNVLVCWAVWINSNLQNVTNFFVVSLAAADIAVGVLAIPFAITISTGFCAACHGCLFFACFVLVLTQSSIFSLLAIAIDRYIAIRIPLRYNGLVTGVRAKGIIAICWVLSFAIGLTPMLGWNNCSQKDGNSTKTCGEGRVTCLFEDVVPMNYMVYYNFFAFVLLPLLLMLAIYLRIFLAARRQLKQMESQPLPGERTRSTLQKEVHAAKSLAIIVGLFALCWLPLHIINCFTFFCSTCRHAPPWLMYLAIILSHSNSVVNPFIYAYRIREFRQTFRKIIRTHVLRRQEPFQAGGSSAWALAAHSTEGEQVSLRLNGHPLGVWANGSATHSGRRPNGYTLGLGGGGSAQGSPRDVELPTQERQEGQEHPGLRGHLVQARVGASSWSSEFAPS
Procedure: PC12 cells were plated at the density of 5×10^5 cells/well (on 12-well plates) and incubated with the indicated reagent(s) for the desired period of time. Cells were washed twice with ice-cold Locke's solution (150 mM NaCl, 5.6 mM KCl, 5 mM glucose, 1 mM MgCl2, and 10 mM HEPES, adjusted to pH 7.4). Cellular cAMP was extracted by adding 0.3 ml of 0.1 M HCl to each well and incubating this for 10 min on ice.

PC12 cells = assay: MTT metabolism assay, serum-deprived PC12 cells; format: cell-based, rat; conditions: 24 h
Procedure: Survival was assessed by the 3-(4,5-dimethylthiazol-2-yl)-2,5-diphenyltetrazolium bromide (MTT) metabolism assay as described elsewhere, [65]. In brief, cells grown on 150-mm plates were washed three times with PBS and resuspended in DMEM. Suspended cells (1×10^4 cells) were plated on 96-well plates and treated with or without the indicated reagent. After incubation for 24 h, MTT (0.5 mg/ml) was added to the medium and incubated for 3 h. After discarding the medium, DMSO (100 µl) was then applied to the well to dissolve the formazan crystals derived from the mitochondrial cleavage of the tetrazolium ring by live cells. The absorbance at 570/630 nm in each well was measured on a micro-enzyme-linked immunosorbent assay reader.

**Q.** With `CCNC(=O)[C@H]1O[C@@H](n2cnc3c(N)nc(NCCc4ccc(CCC(=O)O)cc4)nc32)[C@H](O)[C@@H]1O` [CGS] as the molecule, how does the “Effects on major HD symptoms (brain atrophy, striatal aggregates, deteriorated motor coordination)” value (R6/2 mice) read?
**A.** The value was “provides beneficial effects on several major HD symptoms”.

**Q.** With `O=[N+]([O-])c1ccc(CSc2ncnc3c2ncn3[C@@H]2O[C@H](CO)[C@@H](O)[C@H]2O)cc1` [NBTI, 6-[(4-nitrobenzyl)thio]-9-β-D-ribofuranosylpurine] as the molecule, how does the Ki [1] read?
**A.** Its Ki is 0.85 nM.

**Q.** For `Nc1nc2c(cnn2CCc2ccccc2)c2nc(-c3ccco3)nn12` [SCH58216], which Motor coordination (R6/2 mice; treatment for 1 week) is on record?
**A.** Its Motor coordination is “worsened motor coordination”.

**Q.** What about the “Effect on T1-11-induced elevation in the cAMP level” value (A2AR) of the same molecule?
**A.** Its value is “effectively blocked the T1-11-induced elevation in the cAMP level”.

**Q.** What about the “Effect of A2AR antagonist on T1-11's prevention of serum deprivation-induced death” value (PC12 cells) of the same molecule?
**A.** The value was “blocked the effect of T1-11”.

**Q.** With `Nc1nc(NCCc2ccc(O)cc2)nc2nc(-c3ccco3)nn12` [ZM241385] as the molecule, how does the “Effect of A2AR antagonist on T1-11's prevention of serum deprivation-induced death” value (PC12 cells) read?
**A.** Its value is “blocked the effect of T1-11”.
